Measured values taken from patent US7691387B2, “Cinnamomi and poria composition, method to prepare same and uses thereof” (Jiangsu Kanion Pharmaceutical Co., Ltd, priority 2000, dated 2010).

How the values were obtained:
[1] = tested on: twisting responses of mice induced by acetic acid; assay: Acetic acid twisting experiment; format: in vivo; settings: positive control, 0.2 g/kg
Procedure: Randomly divide the animals into 5 groups. […] After the drug has been administered on the third day, celio-inject 0.5% acetic acid to the mice in groups. Observe and record the times of twisting of mice within 30 minutes. [formula]

[2] = tested on: platelet aggregation of rats; assay: Platelet aggregation experiments of rats; format: in vivo, Wister rats; settings: 0.1 g/kg once
Procedure: The drug concentration is 0.5 mg/ml. […] The drug concentration is 1 g/ml. […] The drug concentration is 1 g/ml. Experimental process: […] Half an hour after administering the drug on the fifth day, use ether to anaesthetize the rats. […] Administer a 0.1 g/kg aspirin once to the positive control group. Prepare platelet plasma according to the method explained previously. Do the aggregation experiments, and record the conditions of every group.

[3] = tested on: extra-corporeal platelet aggregation of rabbits; assay: Extra-corporeal platelet aggregation of rabbit (ADP); format: cell-based; settings: 0.3 Mg/ml
[4] = tested on: ear swelling of mice; assay: Croton oil ear swelling of mice; format: in vivo, Kunming mice; settings: 0.025 g/Kg, three days
Procedure: Preparation of drug: Put 12.5 g of extract of CCP in 100 ml of normal saline, and mix adequately. The drug concentration is […]. Put 25 g of extract of CCP in 100 ml of normal saline, and mix adequately. The drug concentration is 1 g/ml. Put 50 g of extract of CCP in 100 ml of normal saline, and mix adequately. The drug concentration is 2 g/ml. Put 12.5 g of the Bolus of Cinnamomi & Poria in 100 ml of normal saline, and mix adequately. The drug concentration is […]. Put 25 g of extract in 100 ml of normal saline, and mix adequately. The drug concentration is 1 g/ml. Put 50 g of extract in 100 ml of normal saline, and mix adequately. The drug concentration is 2g/ml. Put 0.1 g of Hydrocortisone in 100 ml of normal saline. The drug concentration is 1 mg/ml. Administer all three preparations (a total of seven different solutions) with 10 ml/kg.
Experimental method: According to their weight, randomly divide fifty male mice into eight groups. Administer different doses of the seven solutions mentioned above for three days and for the control group administer the normal saline of the same volume. After three days of administering the drug, besmear […] croton oil on both sides of every mouse's left ear (compare with right ear). […]

Row | Structure (SMILES) | controlling rate of twisting times [1] | Aggregation ratio [2] | Aggregation(%) [3] | Average swelling degree [4]
1 | CC(=O)Oc1ccccc1C(=O)O [Aspirin, Acetylsalicylic acid] | 61.08% | 26.58 ± 10.58 | 32.94 ± 1.68 % | 
2 | C[C@]12CCC(=O)C=C1CC[C@@H]1[C@@H]2[C@@H](O)C[C@@]2(C)[C@H]1CC[C@]2(O)C(=O)CO [Hydrocortisone] |  |  |  | 4.68 ± 3.43
